Values after ≈ are worked out from the molar mass of the structure shown. Blank lines part the entries; values can stand above or below the compound they belong to.
What was measured:
Test in all cases: ≥ marks a high value that may be exact or a test limit, other limits are often not marked, values filed in µg/mL are converted to µM
[1] = test system: Staphylococcus aureus MTCC 9542
Escherichia coli MG1655 = test system: Escherichia coli MG1655
Vibrio cholerae = test system: Vibrio cholerae
[2] = test system: Pseudomonas aeruginosa ATCC 27853
[3] = test system: Staphylococcus aureus BCRC 10780
[4] = test system: Streptococcus pneumoniae BCRC 10794
[5] = test system: Burkholderia cepacia J2540
[6] = test system: Candida albicans NCPF 1467
[7] = test system: Escherichia coli NCTC 10418
[8] = test system: Staphylococcus aureus NCTC 10788
[9] = test system: Escherichia coli IFO 12734
[10] = test system: Staphylococcus aureus IFO 12732
[11] = test system: Pseudomonas aeruginosa IFO 12582
[12] = test system: Bacillus subtilis IFO 3134
[13] = test system: Pseudomonas syringae pv. tomato DC3000
Fusarium solani = test system: Fusarium solani
[14] = test system: Pseudomonas corrugata DSM 7228
[15] = test system: Staphylococcus aureus ATCC 6538
Alternaria alternata = test system: Alternaria alternata
[16] = test system: Clavibacter michiganensis subsp. michiganensis DSM 46294
[17] = test system: Pseudomonas aeruginosa ATCC 9027
Cladosporium herbarum = test system: Cladosporium herbarum
Botrytis cinerea = test system: Botrytis cinerea
[18] = test system: Micrococcus luteus ATCC 9341
[19] = test system: Xanthomonas vesicatoria DSM 50861
[20] = test system: Pseudomonas syringae pv. syringae DSM 10604
[21] = test system: Pectobacterium carotovorum subsp. carotovorum DSM 30168
[22] = test system: Escherichia coli KCTC 1682
[23] = test system: Bacillus subtilis KCTC 1918
[24] = test system: Pseudomonas aeruginosa KCTC 1637
[25] = test system: Staphylococcus aureus KCTC 1621
[26] = test system: Salmonella typhimurium KCTC 1926
[27] = test system: Streptococcus pyogenes KCTC 3096
Escherichia coli BL21AI = test system: Escherichia coli BL21AI
[28] = test system: Micrococcus luteus ATCC 10240

SMILES: CC[C@H](C)[C@@H]1NC(=O)[C@H](CCCCN)NC(=O)[C@@H](NC(=O)[C@H](CC(C)C)NC(=O)[C@@H](NC(=O)[C@H](CCC(N)=O)NC(=O)[C@@H]2CCCN2C(=O)[C@H](CC(C)C)NC(=O)[C@H](Cc2ccccc2)NC(=O)[C@H](CC(N)=O)NC(=O)[C@H](C)NC(=O)[C@H](C)NC(=O)[C@H](CC(C)C)NC(=O)CNC(=O)[C@H](C)N)[C@@H](C)CC)CSSC[C@@H](C(N)=O)NC(=O)[C@H](CCCCN)NC(=O)[C@H](CCCN=C(N)N)NC(=O)[C@H](C)NC1=O [AGLAANFLPQILCKIARKC]
MIC [1]: 24.6 µM (≈ 49.9 µg/mL)
MIC (Escherichia coli MG1655): 24.6 µM (≈ 49.9 µg/mL)
MIC (Vibrio cholerae): 12.3 µM (≈ 25 µg/mL)
MIC [2]: > 49.2 µM

SMILES: CSCC[C@H](NC(=O)[C@H](C)NC(=O)CNC(=O)[C@H](C)NC(=O)[C@H](Cc1cnc[nH]1)NC(=O)[C@H](Cc1ccccc1)NC(C)=O)C(N)=O [FHAGAM]
MIC [3]: ≥ 158 µM
MIC [4]: ≥ 158 µM

SMILES: CC[C@H](C)[C@H](NC(=O)CNC(=O)[C@H](CCCN=C(N)N)NC(=O)[C@H](CC(C)C)NC(=O)[C@H](Cc1ccccc1)NC(=O)[C@H](CC(=O)O)NC(=O)[C@H](CCCCN)NC(=O)[C@@H](NC(=O)[C@H](CCCN=C(N)N)NC(=O)[C@H](CCC(N)=O)NC(=O)[C@@H](NC(=O)[C@@H](NC(=O)[C@H](CCCN=C(N)N)NC(=O)[C@H](CCCCN)NC(=O)[C@@H](N)Cc1ccccc1)[C@@H](C)CC)C(C)C)[C@@H](C)CC)C(=O)NCC(=O)N[C@@H](CCCCN)C(=O)N[C@@H](Cc1ccccc1)C(=O)N[C@@H](CC(C)C)C(=O)N[C@@H](Cc1cnc[nH]1)C(=O)N[C@@H](CO)C(=O)N[C@@H](C)C(=O)N[C@@H](CCCCN)C(=O)N[C@@H](CCCCN)C(=O)N[C@@H](Cc1ccccc1)C(=O)O [FKRIVQRIKDFLRGIGKFLHSAKKF]
MIC [5]: 10.3 µM (≈ 31.3 µg/mL)

SMILES: CC[C@H](C)[C@H](NC(=O)CNC(=O)[C@H](CO)NC(=O)[C@H](C)NC(=O)[C@@H](NC(=O)[C@H](Cc1cnc[nH]1)NC(=O)[C@@H]1CCCN1C(=O)[C@H](CC(C)C)NC(=O)[C@H](CC(C)C)NC(=O)[C@H](CO)NC(=O)[C@H](CC(C)C)NC(=O)[C@@H](N)Cc1ccccc1)[C@@H](C)CC)C(=O)N[C@@H](C)C(=O)N[C@@H](CO)C(=O)N[C@@H](CC(C)C)C(=O)N[C@H](C(=O)N[C@@H](CO)C(=O)N[C@@H](CCCCN)C(=O)N[C@@H](Cc1ccccc1)C(N)=O)C(C)C [FLSLLPHIASGIASLVSKF]
MIC [6]: 15 µM (≈ 30 µg/mL)
MIC [7]: ≥ 200 µM
MIC [8]: 5 µM (≈ 10 µg/mL)

SMILES: CC[C@H](C)[C@H](NC(=O)[C@H](C)NC(=O)[C@@H]1CCCN1C(=O)[C@@H](NC(=O)[C@@H](NC(=O)[C@H](CCCCN)NC(=O)[C@H](C)NC(=O)[C@H](C)NC(=O)[C@@H](NC(=O)[C@H](CCCCN)NC(=O)[C@H](C)NC(=O)[C@H](CC(C)C)NC(=O)[C@@H](NC(=O)CNC(=O)[C@H](Cc1ccccc1)NC(=O)[C@H](CC(C)C)NC(=O)CN)C(C)C)C(C)C)C(C)C)C(C)C)C(=O)N[C@@H](C)C(=O)N[C@@H](CCC(=O)O)C(=O)N[C@@H](Cc1cnc[nH]1)C(=O)N[C@@H](Cc1ccccc1)C(N)=O [GLFGVLAKVAAKVVPAIAEHF]
MIC [9]: 16 µM (≈ 34.2 µg/mL)
MIC [10]: 8 µM (≈ 17.1 µg/mL)
MIC [11]: ≥ 32 µM
MIC [12]: 8 µM (≈ 17.1 µg/mL)

SMILES: CC[C@H](C)[C@H](N)C(=O)N[C@@H](CC(C)C)C(=O)N1CCC[C@H]1C(=O)N[C@@H](Cc1c[nH]c2ccccc12)C(=O)N[C@@H](CCCCN)C(=O)N[C@@H](Cc1c[nH]c2ccccc12)C(=O)N1CCC[C@H]1C(=O)N[C@@H](Cc1c[nH]c2ccccc12)C(=O)N[C@@H](Cc1c[nH]c2ccccc12)C(=O)N1CCC[C@H]1C(=O)N[C@@H](Cc1c[nH]c2ccccc12)C(=O)N[C@@H](CCCNC(=N)N)C(=O)N[C@@H](CCCNC(=N)N)C(=O)O [ILPWKWPWWPWRR]
MIC [13]: ≥ 33.6 µM
MIC (Fusarium solani): 4.19 µM (≈ 8 µg/mL)
MIC [14]: ≥ 33.6 µM
MIC [15]: 5.24 µM (≈ 10 µg/mL)
MIC (Alternaria alternata): 16.8 µM (≈ 32 µg/mL)
MIC [16]: 0.524 µM (≈ 1 µg/mL)
MIC [17]: > 105 µM
MIC (Cladosporium herbarum): ≥ 33.6 µM
MIC (Botrytis cinerea): 16.8 µM (≈ 32 µg/mL)
MIC [18]: 1.6 µM (≈ 3.05 µg/mL)
MIC [19]: 1.05 µM (≈ 2 µg/mL)
MIC [20]: ≥ 33.6 µM
MIC [21]: ≥ 33.6 µM

Next, values leading:

MIC [3]: ≥ 80.7 µM
MIC [4]: ≥ 80.7 µM
SMILES: CC[C@H](C)[C@H](NC(=O)[C@H](CCSC)NC(=O)[C@H](CCCCN)NC(=O)CNC(=O)[C@H](C)NC(=O)[C@H](Cc1cnc[nH]1)NC(=O)[C@H](Cc1ccccc1)NC(=O)[C@H](CC(C)C)NC(=O)CNC(=O)[C@H](CCCCN)NC(C)=O)C(=O)N[C@@H](Cc1cnc[nH]1)C(N)=O [KGLFHAGKMIH]

MIC [22]: 6.25 µM (≈ 13.6 µg/mL)
MIC [23]: 1.56 µM (≈ 3.4 µg/mL)
MIC [24]: 1.56 µM (≈ 3.4 µg/mL)
MIC [25]: 3.12 µM (≈ 6.8 µg/mL)
MIC [26]: 0.78 µM (≈ 1.7 µg/mL)
MIC [27]: 0.78 µM (≈ 1.7 µg/mL)
SMILES: CC[C@H](C)[C@H](NC(=O)[C@H](CCCCN)NC(=O)[C@H](CCCCN)NC(=O)[C@H](Cc1ccccc1)NC(=O)[C@H](CC(C)C)NC(=O)[C@H](CCCCN)NC(=O)[C@H](Cc1c[nH]c2ccccc12)NC(=O)[C@@H](N)CCCCN)C(=O)N[C@@H](CCCCN)C(=O)N[C@@H](Cc1ccccc1)C(=O)N[C@@H](CC(C)C)C(=O)N[C@@H](Cc1cnc[nH]1)C(=O)N[C@@H](CO)C(=O)N[C@@H](C)C(=O)N[C@@H](CCCCN)C(=O)N[C@@H](CCCCN)C(=O)N[C@@H](Cc1ccccc1)C(N)=O [KWKLFKKIKFLHSAKKF]

MIC [13]: 29.2 µM (≈ 40 µg/mL)
MIC [14]: 29.2 µM (≈ 40 µg/mL)
MIC (Alternaria alternata): ≥ 72.9 µM
MIC [16]: 14.6 µM (≈ 20 µg/mL)
MIC (Cladosporium herbarum): ≥ 72.9 µM
MIC (Botrytis cinerea): ≥ 72.9 µM
MIC [19]: 29.2 µM (≈ 40 µg/mL)
MIC [20]: 29.2 µM (≈ 40 µg/mL)
MIC [21]: 29.2 µM (≈ 40 µg/mL)
SMILES: CC[C@H](C)[C@H](NC(=O)[C@H](CC(C)C)NC(=O)[C@@H](N)CC(C)C)C(=O)N[C@@H](C)C(=O)N[C@@H](C)C(=O)N[C@@H](Cc1ccccc1)C(=O)N[C@@H](CCCCN)C(=O)N[C@@H](CCCCN)C(=O)N[C@@H](CC(C)C)C(=O)N[C@H](C(=O)N[C@@H](CCCCN)C(=O)N[C@@H](CCCCN)C(N)=O)C(C)C [LLIAAFKKLVKK]

MIC (Escherichia coli BL21AI): 25.7 µM (≈ 64 µg/mL)
MIC [28]: 12.9 µM (≈ 32 µg/mL)
SMILES: CC[C@H](C)[C@H](NC(=O)[C@H](CCCN=C(N)N)NC(=O)[C@H](CCCN=C(N)N)NC(=O)[C@@H]1CCCN1C(=O)[C@@H]1CCCN1C(=O)[C@H](Cc1cnc[nH]1)NC(=O)[C@@H]1CCCN1C(=O)[C@H](CCCN=C(N)N)NC(=O)[C@@H]1CCCN1C(=O)[C@H](CC(C)C)NC(=O)[C@H](Cc1ccc(O)cc1)NC(=O)[C@@H]1CCCN1C(=O)[C@@H]1CCCN1C(=O)[C@H](CCCCN)NC(=O)[C@H](CC(=O)O)NC(=O)[C@@H](N)C(C)C)C(=O)N[C@@H](Cc1ccc(O)cc1)C(=O)N[C@@H](CC(N)=O)C(=O)N[C@@H](CC(N)=O)C(=O)N[C@@H](CCCN=C(N)N)C(=O)O [VDKPPYLPRPHPPRRIYNNR]

Source: DBAASP
